Source: paper PMC12301034, “Design and Synthesis of Boronic Chalcones with Dual Anticancer and Anti-Inflammatory Activity” (Molecules, 2025)

Test system: IL-1β
Experiment: Anti-inflammatory assay, IL-1β in LPS-stimulated THP-1 cells (CBA)
Type: cell-based, human
Settings: 2 and 4 µg/mL, 24 h
Protocol: For this assay, THP-1 (BCRJ cód. 0234) cells were cultured in Roswell Park Memorial Institute (RPMI-1640, Sigma-Aldrich; Saint Louis, MO, USA) media supplemented with 2 mM L-glutamine, 1 mM sodium pyruvate, 1.50 g/L of sodium bicarbonate, and 10% fetal bovine serum. For obtaining Macrophage-like cells, 250,000 cells per well were plated in a 24-well cell culture plate. A total of 20 ng/mL of Forbol 12-miristato-13-acetato (PMA) was added to each well, and the cells were incubated for 48 h at 37 °C with 5% CO2. After the 48 h, the wells were washed with 1X PBS, and fresh RPMI-1640 media was added. The cells were then incubated for 24 h at 37 °C and 5% CO2. For the cell’s stimulations, after the 24 h, the well was washed with PBS and fresh RPMI1640 media without fetal bovine serum added. For the positive controls of the assay, 3 wells were stimulated with LPS (1 ng/µL) diluted in the same volume and media used for the drugs stimulation. Two different concentrations (2 and 4 µg/mL) were evaluated for each molecule, which were determined to be non-cytotoxic through a cell viability assay. After a 24 h period, the supernatant was removed and used in the cytokine quantification assay. A kit for inflammatory cytokines, BD® Cytometric Bead Array CBA Human Inflammatory, was employed for this assay, containing the following human cytokines: IL-8, IL-1β, IL-6, and TNF. […]

## COc1cccc(C(=O)/C=C/c2cccc(B(O)O)c2)c1 [Compound 5, (E)-(3-(3-(3-methoxyphenyl)-3-oxoprop-1-en-1-yl)phenyl)boronic acid]
  reduction of IL-1β levels: comparable efficacy in reducing cytokine levels relative to LPS-stimulated cells
